Results reported in the supplement of paper PMC10307832.

Legend:
Assay in all cases: relative viability (nuclei count vs DMSO), 5 days (fraction); higher = more cells survive
NCI-H2170 = test system: NCI-H2170
Method in brief: (§1)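 Cells from lung cancer lines were seeded into 1536-well plates and, one day later, dosed by pin tool. Treatments were either a single drug or a fixed dose of an anchor drug with five library-drug doses (not always all listed) in √10 steps. After 5 days, nuclei were stained in a one-step fixation (final 0.05% Triton X-100, 1% formaldehyde, 1 ug/ml Hoechst) and counted on 4× images, and relative viability is the treated-to-vehicle nuclei ratio, as the median of duplicate plates.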

A-427 = test system: A-427
Method in brief: as §1

EKVX = test system: EKVX
Method in brief: as §1

PC-3 [JPC-3] = test system: PC-3 [JPC-3]
Method in brief: as §1

ChaGo-K-1 = test system: ChaGo-K-1
Method in brief: as §1

NCI-H441 = test system: NCI-H441
Method in brief: as §1

HCC-366 = test system: HCC-366
Method in brief: as §1

EMC-BAC-2 = test system: EMC-BAC-2
Method in brief: as §1

LK-2 = test system: LK-2
Method in brief: as §1

NCI-H1755 = test system: NCI-H1755
Method in brief: as §1

COR-L 105 = test system: COR-L 105
Method in brief: as §1

SW 900 = test system: SW 900
Method in brief: as §1

SK-MES-1 = test system: SK-MES-1
Method in brief: as §1

NCI-H1975 = test system: NCI-H1975
Method in brief: as §1

NCI-H520 = test system: NCI-H520
Method in brief: as §1

NCI-H1734 = test system: NCI-H1734
Method in brief: as §1

NCI-H1666 = test system: NCI-H1666
Method in brief: as §1

LOU-NH91 = test system: LOU-NH91
Method in brief: as §1

NCI-H23 = test system: NCI-H23
Method in brief: as §1

H3255 = test system: H3255
Method in brief: as §1

Cc1sc2c(c1C)C(c1ccc(Cl)cc1)=N[C@@H](CC(=O)OC(C)(C)C)c1nnc(C)n1-2 [JQ1] + CC(=O)c1c(C)c2cnc(Nc3ccc(N4CCNCC4)cn3)nc2n(C2CCCC2)c1=O [Palbociclib] (partner 0.5 µM)
relative viability (NCI-H2170; first compound 0.04 µM): 0.342 | relative viability (NCI-H2170; first compound 0.1265 µM): 0.353 | relative viability (NCI-H2170; first compound 0.4 µM): 0.267 | relative viability (NCI-H2170; first compound 1.265 µM): 0.178 | relative viability (NCI-H2170; first compound 4 µM): 0.185 | relative viability (A-427; first compound 0.04 µM): 0.524 | relative viability (A-427; first compound 0.1265 µM): 0.493 | relative viability (A-427; first compound 0.4 µM): 0.457 | relative viability (A-427; first compound 1.265 µM): 0.445 | relative viability (A-427; first compound 4 µM): 0.375 | relative viability (EKVX; first compound 0.04 µM): 0.429 | relative viability (EKVX; first compound 0.1265 µM): 0.34 | relative viability (EKVX; first compound 0.4 µM): 0.372 | relative viability (EKVX; first compound 1.265 µM): 0.368 | relative viability (EKVX; first compound 4 µM): 0.314 | relative viability (PC-3 [JPC-3]; first compound 0.04 µM): 0.532 | relative viability (PC-3 [JPC-3]; first compound 0.1265 µM): 0.554 | relative viability (PC-3 [JPC-3]; first compound 0.4 µM): 0.513 | relative viability (PC-3 [JPC-3]; first compound 1.265 µM): 0.575 | relative viability (PC-3 [JPC-3]; first compound 4 µM): 0.438 | relative viability (ChaGo-K-1; first compound 0.04 µM): 0.942 | relative viability (ChaGo-K-1; first compound 0.1265 µM): 0.909 | relative viability (ChaGo-K-1; first compound 0.4 µM): 0.952 | relative viability (ChaGo-K-1; first compound 1.265 µM): 0.674 | relative viability (ChaGo-K-1; first compound 4 µM): 0.525 | relative viability (NCI-H441; first compound 0.04 µM): 0.19 | relative viability (NCI-H441; first compound 0.1265 µM): 0.206 | relative viability (NCI-H441; first compound 0.4 µM): 0.176 | relative viability (NCI-H441; first compound 1.265 µM): 0.137 | relative viability (NCI-H441; first compound 4 µM): 0.132 | relative viability (HCC-366; first compound 0.04 µM): 0.415 | relative viability (HCC-366; first compound 0.4 µM): 0.202 | relative viability (HCC-366; first compound 1.265 µM): 0.137 | relative viability (HCC-366; first compound 4 µM): 0.0766 | relative viability (EMC-BAC-2; first compound 0.04 µM): 0.496 | relative viability (EMC-BAC-2; first compound 0.1265 µM): 0.441 | relative viability (EMC-BAC-2; first compound 0.4 µM): 0.421 | relative viability (EMC-BAC-2; first compound 1.265 µM): 0.332 | relative viability (EMC-BAC-2; first compound 4 µM): 0.315 | relative viability (LK-2; first compound 0.04 µM): 0.718 | relative viability (LK-2; first compound 0.1265 µM): 0.702 | relative viability (LK-2; first compound 0.4 µM): 0.339 | relative viability (LK-2; first compound 1.265 µM): 0.151 | relative viability (LK-2; first compound 4 µM): 0.151 | relative viability (NCI-H1755; first compound 0.04 µM): 0.434 | relative viability (NCI-H1755; first compound 0.1265 µM): 0.426 | relative viability (NCI-H1755; first compound 0.4 µM): 0.416 | relative viability (NCI-H1755; first compound 1.265 µM): 0.388 | relative viability (NCI-H1755; first compound 4 µM): 0.353 | relative viability (COR-L 105; first compound 0.04 µM): 0.384 | relative viability (COR-L 105; first compound 0.1265 µM): 0.429 | relative viability (COR-L 105; first compound 0.4 µM): 0.358 | relative viability (COR-L 105; first compound 1.265 µM): 0.311 | relative viability (COR-L 105; first compound 4 µM): 0.34 | relative viability (SW 900; first compound 0.04 µM): 0.506 | relative viability (SW 900; first compound 0.1265 µM): 0.465 | relative viability (SW 900; first compound 0.4 µM): 0.318 | relative viability (SW 900; first compound 1.265 µM): 0.289 | relative viability (SW 900; first compound 4 µM): 0.222 | relative viability (SK-MES-1; first compound 0.04 µM): 0.295 | relative viability (SK-MES-1; first compound 0.1265 µM): 0.264 | relative viability (SK-MES-1; first compound 0.4 µM): 0.234 | relative viability (SK-MES-1; first compound 1.265 µM): 0.213 | relative viability (SK-MES-1; first compound 4 µM): 0.23 | relative viability (NCI-H1975; first compound 0.04 µM): 0.607 | relative viability (NCI-H1975; first compound 0.1265 µM): 0.38 | relative viability (NCI-H1975; first compound 0.4 µM): 0.457 | relative viability (NCI-H1975; first compound 1.265 µM): 0.287 | relative viability (NCI-H1975; first compound 4 µM): 0.248 | relative viability (NCI-H520; first compound 0.04 µM): 0.197 | relative viability (NCI-H520; first compound 0.1265 µM): 0.196 | relative viability (NCI-H520; first compound 0.4 µM): 0.184 | relative viability (NCI-H520; first compound 1.265 µM): 0.154 | relative viability (NCI-H520; first compound 4 µM): 0.143 | relative viability (NCI-H1734; first compound 0.04 µM): 0.365 | relative viability (NCI-H1734; first compound 0.1265 µM): 0.334 | relative viability (NCI-H1734; first compound 0.4 µM): 0.313 | relative viability (NCI-H1734; first compound 1.265 µM): 0.279 | relative viability (NCI-H1734; first compound 4 µM): 0.303 | relative viability (NCI-H1666; first compound 0.04 µM): 0.646 | relative viability (NCI-H1666; first compound 0.1265 µM): 0.576 | relative viability (NCI-H1666; first compound 0.4 µM): 0.591 | relative viability (NCI-H1666; first compound 1.265 µM): 0.647 | relative viability (NCI-H1666; first compound 4 µM): 0.568 | relative viability (LOU-NH91; first compound 0.04 µM): 0.493 | relative viability (LOU-NH91; first compound 0.1265 µM): 0.474 | relative viability (LOU-NH91; first compound 0.4 µM): 0.491 | relative viability (LOU-NH91; first compound 1.265 µM): 0.394 | relative viability (LOU-NH91; first compound 4 µM): 0.446 | relative viability (NCI-H23; first compound 0.04 µM): 0.597 | relative viability (NCI-H23; first compound 0.1265 µM): 0.48 | relative viability (NCI-H23; first compound 0.4 µM): 0.275 | relative viability (NCI-H23; first compound 1.265 µM): 0.26 | relative viability (NCI-H23; first compound 4 µM): 0.215 | relative viability (H3255; first compound 0.04 µM): 0.303 | relative viability (H3255; first compound 0.1265 µM): 0.321 | relative viability (H3255; first compound 0.4 µM): 0.283 | relative viability (H3255; first compound 1.265 µM): 0.247 | relative viability (H3255; first compound 4 µM): 0.228
